Results: PubChem BioAssay (NCI)
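Following 48 hours of exposure in 96-well plates, responses at five concentrations were used to interpolate endpoints linearly. The concentration for 50% growth inhibition is given as GI50. TGI marks complete inhibition of growth.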 Where a SMILES comes first, the peptide text is derived from it. [ ]: non-standard residue; d: D form. The star is where a group is joined. ξ: configuration not given here. ξF = NC(Cc1ccccc1)C(=O)O; Cbz = O=C(OCc1ccccc1)*; Aib = CC(C)(N)C(=O)O

Key:
Test in all cases: growth of human tumour cells (NCI), 48 h
HOP-92 NSCLC = system: HOP-92 NSCLC
LOX IMVI melanoma = system: LOX IMVI melanoma
NCI-H23 lung = system: NCI-H23 lung
OVCAR-4 ovarian = system: OVCAR-4 ovarian
PC-3 prostate = system: PC-3 prostate
RXF 393 renal = system: RXF 393 renal
SF-539 CNS = system: SF-539 CNS
SK-MEL-5 melanoma = system: SK-MEL-5 melanoma
DLD-1 colon = system: DLD-1 colon
DMS 114 small cell lung = system: DMS 114 small cell lung
M19-MEL melanoma = system: M19-MEL melanoma

SMILES	TGI (HOP-92 NSCLC)	TGI (LOX IMVI melanoma)	TGI (NCI-H23 lung)	TGI (OVCAR-4 ovarian)	TGI (PC-3 prostate)	TGI (RXF 393 renal)	TGI (SF-539 CNS)	TGI (SK-MEL-5 melanoma)	TGI (DLD-1 colon)	TGI (DMS 114 small cell lung)	TGI (M19-MEL melanoma)	GI50 (DLD-1 colon)	GI50 (DMS 114 small cell lung)	GI50 (HOP-92 NSCLC)	GI50 (LOX IMVI melanoma)	GI50 (M19-MEL melanoma)	GI50 (NCI-H23 lung)	GI50 (OVCAR-4 ovarian)	GI50 (RXF 393 renal)	GI50 (SF-539 CNS)
CC(=O)ON1C(=O)c2cccc3cccc(c23)C1=O	> 100 µM	57.3 µM	50 µM	40.7 µM	> 100 µM	25.5 µM	48.3 µM	28.2 µM												
CCOC(=O)CCC(NC(=O)OCc1ccccc1)C(=O)NC(CCC(=O)OCC)C(=O)NNC(=O)OC(C)(C)C (configuration not stated)	> 100 µM		> 100 µM		> 100 µM	> 100 µM		> 100 µM												
c1cncc(O[Si](Oc2cccnc2)(Oc2cccnc2)Oc2cccnc2)c1		> 100 µM	> 100 µM	> 100 µM		> 100 µM	> 100 µM	> 100 µM	> 100 µM	> 100 µM	> 100 µM									
Nc1c(-c2ccccc2[N+](=O)[O-])nc2ccccn12	> 100 µM	> 100 µM	> 100 µM			> 100 µM		> 100 µM	> 100 µM	> 100 µM	> 100 µM									
C[CH2][Ge]([CH2]C)([CH2]C)[O]C(=O)CCC(=O)[O][Ge]([CH2]C)([CH2]C)[CH2]C	> 100 µM	> 100 µM	> 100 µM	> 100 µM		> 100 µM	> 100 µM		> 100 µM	> 100 µM	> 100 µM	38.7 µM	38.9 µM	16.2 µM	58 µM	> 100 µM	39.7 µM	> 100 µM	> 100 µM	> 100 µM
COC(=O)C(C)(C)NC(=O)C(Cc1ccccc1)NC(=O)C(C)(C)NC(=O)OCc1ccccc1 (configuration not stated) (Cbz-[Aib]-[ξF]-[Aib]-OMe)		> 100 µM		> 100 µM	> 100 µM			> 100 µM												
